According to publication PMC10114720:

How the values were obtained:
[1] = PDMS sheets cleaned by Soxhlet with ethyl acetate; batch shaking method with a mixture of all chemicals at several PDMS-mass to water-volume ratios and spiked levels; vials shaken on an orbital shaker at room temperature in the dark, sampled at two equilibration times; PDMS extracts and water quantified by LC-HRMS (Orbitrap); D from the slope of C_PDMS on C_w or their ratio; value is the mean over that pH's experiments (individual experiments in the SI's concentrations table), sd is the table's stdev; details: PDMS (polydimethylsiloxane silicone sheet), phosphate buffer at three target pH values (the paper's methods)
[2] = neutral chemical: log K is the mean of log D over all measurements at the three pH values (D shown independent of pH, paired t-test); sd is the table's stddev. PDMS sheets cleaned by Soxhlet with ethyl acetate; batch shaking method with a mixture of all chemicals at several PDMS-mass to water-volume ratios and spiked levels; vials shaken on an orbital shaker at room temperature in the dark, sampled at two equilibration times; PDMS extracts and water quantified by LC-HRMS (Orbitrap); D from the slope of C_PDMS on C_w or their ratio; details: PDMS (polydimethylsiloxane silicone sheet); phosphate buffer at three target pH values (the paper's methods)
[3] = monoprotic acid or base: log K of the neutral species extrapolated from the linear regression of D on the neutral fraction (from pKa and pH; the paper's eq. for monoprotic IOCs), the slope giving K of the neutral species; replicates column holds the table's 95% confidence limits. PDMS sheets cleaned by Soxhlet with ethyl acetate; batch shaking method with a mixture of all chemicals at several PDMS-mass to water-volume ratios and spiked levels; vials shaken on an orbital shaker at room temperature in the dark, sampled at two equilibration times; PDMS extracts and water quantified by LC-HRMS (Orbitrap); D from the slope of C_PDMS on C_w or their ratio; details: PDMS (polydimethylsiloxane silicone sheet); phosphate buffer at three target pH values (the paper's methods)

SMILES | log D PDMS/w (apparent distribution ratio at the stated pH) ([1]; pH 3) | log D PDMS/w (apparent distribution ratio at the stated pH) ([1]; pH 7.4) | log D PDMS/w (apparent distribution ratio at the stated pH) ([1]; pH 11.5) | log K PDMS/w (neutral species) [2] | log K PDMS/w (neutral species) [3]
CCCCCCCCCCCC(=O)NCC(C)O (stereo not drawn) | 3.188 log units; D and K as the pape | 3.329 log units; D and K as the pape | 3.181 log units; D and K as the pape | 3.231 log units; D and K as the pape | –
N#Cc1nn(-c2c(Cl)cc(C(F)(F)F)cc2Cl)c(N)c1C(F)(F)F | 1.946 log units; D and K as the pape | 1.927 log units; D and K as the pape | 1.883 log units; D and K as the pape | 1.919 log units; D and K as the pape | –
CNC(=O)/C(=N/OC)c1ccccc1COc1cc(C)ccc1C | 2.432 log units; D and K as the pape | 2.361 log units; D and K as the pape | 2.397 log units; D and K as the pape | 2.396 log units; D and K as the pape | –
CCCCCCCCCCCC(=O)N(CCO)CCO | 2.742 log units; D and K as the pape | 2.767 log units; D and K as the pape | 2.749 log units; D and K as the pape | 2.753 log units; D and K as the pape | –
CCC(C(N)=O)(C(N)=O)c1ccccc1 | -0.586 log units; D and K as the pape | -0.585 log units; D and K as the pape | -0.5033 log units; D and K as the pape | -0.5565 log units; D and K as the pape | –
[O-][n+]1cccc2ccccc21 | 1.066 log units; D and K as the pape | 1.11 log units; D and K as the pape | 1.203 log units; D and K as the pape | 1.126 log units; D and K as the pape | –
Cc1cccc(C)c1N(Cn1cccn1)C(=O)CS(C)=O (stereo not drawn) | 0.5745 log units; D and K as the pape | 0.5892 log units; D and K as the pape | 0.6192 log units; D and K as the pape | 0.5949 log units; D and K as the pape | –
COC(=O)C(c1ccccc1Cl)N1CCc2sccc2C1 (stereo not drawn) | 1.25 log units; D and K as the pape | -0.5267 log units; D and K as the pape | – | 0.9169 log units; D and K as the pape | –
CC(C)c1ccc2sc3ccccc3c(=O)c2c1 | 4.266 log units; D and K as the pape | 4.252 log units; D and K as the pape | 4.168 log units; D and K as the pape | 4.227 log units; D and K as the pape | –
O=P(c1ccccc1)(c1ccccc1)c1ccccc1 | 2.588 log units; D and K as the pape | 2.511 log units; D and K as the pape | 2.589 log units; D and K as the pape | 2.562 log units; D and K as the pape | –
Cc1ccc(C=C2C(=O)C3(C)CCC2C3(C)C)cc1 (stereo not drawn) | 3.9 log units; D and K as the pape | 3.912 log units; D and K as the pape | 3.742 log units; D and K as the pape | 3.848 log units; D and K as the pape | –
O=S(=O)(c1ccc(Cl)cc1)c1ccc(Cl)cc1 | 2.579 log units; D and K as the pape | 2.592 log units; D and K as the pape | 2.517 log units; D and K as the pape | 2.563 log units; D and K as the pape | –
c1ccc(-c2ccc(C(c3ccccc3)n3ccnc3)cc2)cc1 (stereo not drawn) | 2.122 log units; D and K as the pape | 4.209 log units; D and K as the pape | 4.169 log units; D and K as the pape | – | 4.281 log units; D and K as the pape
